Reference: patent US10689381B2 (priority 2017, dated 2020)
Read-outs that look alike come from different tables or passages of the source.

Experiments:
L1210 = test: cells; type: cell-based, mouse
Procedure, shortened: (§1)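 Compound exposure ran 72 h at six concentrations (0–1000 nM or 0–10000 nM, duplicate) on cells plated at 30,000 cells/mL in 10% FBS DMEM. A closing 37 °C incubation took 15 min (HCT116) or 5 min (L1210).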

HCT116 = test: cells; type: cell-based, human; details: for IC50: read-out: IC50 HCT116
Procedure, shortened: as §1

CCC1(NC(=O)c2ccon2)CC2CN(CCc3c([nH]c4ccccc34)C(C(=O)OC)(c3cc4c(cc3OC)N(C)C3C(O)(C(=O)OC)C(OC(C)=O)C5(CC)C=CCN6CCC43C65)C2)C1 (centres unmarked) [Compound 143] showed an IC50 (L1210; Table 5) of 4.5 nM and an IC50 (HCT116; Table 5) of 7 nM.

Compound CCC1(NC(=O)C2CCOCC2)CC2CN(CCc3c([nH]c4ccccc34)C(C(=O)OC)(c3cc4c(cc3OC)N(C)C3C(O)(C(=O)OC)C(OC(C)=O)C5(CC)C=CCN6CCC43C65)C2)C1 (centres unmarked) [Compound 144] has an IC50 (L1210; Table 5) of 70 nM and an IC50 (HCT116; Table 5) of 35 nM.

Compound CCC1(NC(=O)C2CCSCC2)CC2CN(CCc3c([nH]c4ccccc34)C(C(=O)OC)(c3cc4c(cc3OC)N(C)C3C(O)(C(=O)OC)C(OC(C)=O)C5(CC)C=CCN6CCC43C65)C2)C1 (centres unmarked) [Compound 145] has an IC50 (L1210; Table 5) of 460 nM and an IC50 (HCT116; Table 5) of 450 nM.

CCC1(NC(=O)C2CCN(C(=O)OC(C)(C)C)CC2)CC2CN(CCc3c([nH]c4ccccc34)C(C(=O)OC)(c3cc4c(cc3OC)N(C)C3C(O)(C(=O)OC)C(OC(C)=O)C5(CC)C=CCN6CCC43C65)C2)C1 (centres unmarked) [Compound 147] showed an IC50 (L1210; Table 5) of 50 nM and an IC50 (HCT116; Table 5) of 45 nM.

CCC1(NC(=O)C2CCN(C)CC2)CC2CN(CCc3c([nH]c4ccccc34)C(C(=O)OC)(c3cc4c(cc3OC)N(C)C3C(O)(C(=O)OC)C(OC(C)=O)C5(CC)C=CCN6CCC43C65)C2)C1 (centres unmarked) [Compound 148] gave an IC50 (L1210; Table 5) of 5300 nM and an IC50 (HCT116; Table 5) of 4400 nM.

With CCC1(NC(=O)c2ccc3cccnc3c2)CC2CN(CCc3c([nH]c4ccccc34)C(C(=O)OC)(c3cc4c(cc3OC)N(C)C3C(O)(C(=O)OC)C(OC(C)=O)C5(CC)C=CCN6CCC43C65)C2)C1 (centres unmarked) [Compound 149] the IC50 (L1210; Table 6) was 0.6 nM and the IC50 (HCT116; Table 6) was 0.7 nM.

Compound CCC1(NC(=O)c2ccc3ncccc3c2)CC2CN(CCc3c([nH]c4ccccc34)C(C(=O)OC)(c3cc4c(cc3OC)N(C)C3C(O)(C(=O)OC)C(OC(C)=O)C5(CC)C=CCN6CCC43C65)C2)C1 (centres unmarked) [Compound 150] has an IC50 (L1210; Table 6) of 0.6 nM and an IC50 (HCT116; Table 6) of 0.6 nM.

Work on CCC1(NC(=O)c2cnc3ccccc3c2)CC2CN(CCc3c([nH]c4ccccc34)C(C(=O)OC)(c3cc4c(cc3OC)N(C)C3C(O)(C(=O)OC)C(OC(C)=O)C5(CC)C=CCN6CCC43C65)C2)C1 (centres unmarked) [Compound 151] yielded an IC50 (L1210; Table 6) of 0.7 nM and an IC50 (HCT116; Table 6) of 0.6 nM.

CCC1(NC(=O)c2ccc3ccccc3n2)CC2CN(CCc3c([nH]c4ccccc34)C(C(=O)OC)(c3cc4c(cc3OC)N(C)C3C(O)(C(=O)OC)C(OC(C)=O)C5(CC)C=CCN6CCC43C65)C2)C1 (centres unmarked) [Compound 152] was tested, and the IC50 (L1210; Table 6) was 40 nM, the IC50 (HCT116; Table 6) was 40 nM and the “loss in activity when acyl substitution site is ortho to the basic nitrogen” value (HCT116; quinolyl series) was “about 100 fold”.

For CCC1(NC(=O)c2ccc3ccncc3c2)CC2CN(CCc3c([nH]c4ccccc34)C(C(=O)OC)(c3cc4c(cc3OC)N(C)C3C(O)(C(=O)OC)C(OC(C)=O)C5(CC)C=CCN6CCC43C65)C2)C1 (centres unmarked) [Compound 153], the IC50 (L1210; Table 6) was 0.4 nM and the IC50 (HCT116; Table 6) was 0.4 nM.

In the case of CCC1(NC(=O)c2ccc3cnccc3c2)CC2CN(CCc3c([nH]c4ccccc34)C(C(=O)OC)(c3cc4c(cc3OC)N(C)C3C(O)(C(=O)OC)C(OC(C)=O)C5(CC)C=CCN6CCC43C65)C2)C1 (centres unmarked) [Compound 154], the IC50 (L1210; Table 6) is reported as 0.6 nM and the IC50 (HCT116; Table 6) is reported as 0.6 nM.

In the case of CC[C@]1(NC(=O)c2ccc3nccnc3c2)C[C@H]2CN(CCc3c([nH]c4ccccc34)[C@@](C(=O)OC)(c3cc4c(cc3OC)N(C)[C@H]3[C@@](O)(C(=O)OC)[C@H](OC(C)=O)[C@]5(CC)C=CCN6CC[C@]43[C@@H]65)C2)C1 [Compound 155], the IC50 (L1210; Table 6) is reported as 0.6 nM and the IC50 (HCT116; Table 6) is reported as 0.6 nM.

In the case of CCC1(NC(=O)c2cnc3ccccc3n2)CC2CN(CCc3c([nH]c4ccccc34)C(C(=O)OC)(c3cc4c(cc3OC)N(C)C3C(O)(C(=O)OC)C(OC(C)=O)C5(CC)C=CCN6CCC43C65)C2)C1 (centres unmarked) [Compound 156], the IC50 (L1210; Table 6) is reported as 6.2 nM and the IC50 (HCT116; Table 6) is reported as 5.9 nM.

In the case of CCC1(NC(=O)c2ccc3ccoc3c2)CC2CN(CCc3c([nH]c4ccccc34)C(C(=O)OC)(c3cc4c(cc3OC)N(C)C3C(O)(C(=O)OC)C(OC(C)=O)C5(CC)C=CCN6CCC43C65)C2)C1 (centres unmarked) [Compound 157], the IC50 (L1210; Table 6) is reported as 3.3 nM and the IC50 (HCT116; Table 6) is reported as 2.2 nM.

With CCC1(NC(=O)c2ccc3occc3c2)CC2CN(CCc3c([nH]c4ccccc34)C(C(=O)OC)(c3cc4c(cc3OC)N(C)C3C(O)(C(=O)OC)C(OC(C)=O)C5(CC)C=CCN6CCC43C65)C2)C1 (centres unmarked) [Compound 158] the IC50 (L1210; Table 6) was 5 nM and the IC50 (HCT116; Table 6) was 3.8 nM.

With CCC1(NC(=O)c2coc3ccccc23)CC2CN(CCc3c([nH]c4ccccc34)C(C(=O)OC)(c3cc4c(cc3OC)N(C)C3C(O)(C(=O)OC)C(OC(C)=O)C5(CC)C=CCN6CCC43C65)C2)C1 (centres unmarked) [Compound 159] the IC50 (L1210; Table 6) was 4 nM and the IC50 (HCT116; Table 6) was 4.6 nM.

CC[C@]1(NC(=O)c2cc3ccccc3o2)C[C@H]2CN(CCc3c([nH]c4ccccc34)[C@@](C(=O)OC)(c3cc4c(cc3OC)N(C)[C@H]3[C@@](O)(C(=O)OC)[C@H](OC(C)=O)[C@]5(CC)C=CCN6CC[C@]43[C@@H]65)C2)C1 [Compound 160] was tested, and the IC50 (L1210; Table 6) was 1.8 nM and the IC50 (HCT116; Table 6) was 1.1 nM.

Work on CCC1(NC(=O)c2ccc3c(c2)CCO3)CC2CN(CCc3c([nH]c4ccccc34)C(C(=O)OC)(c3cc4c(cc3OC)N(C)C3C(O)(C(=O)OC)C(OC(C)=O)C5(CC)C=CCN6CCC43C65)C2)C1 (centres unmarked) [Compound 161] yielded an IC50 (L1210; Table 6) of 0.3 nM and an IC50 (HCT116; Table 6) of 0.25 nM.

For CC[C@]1(NC(=O)c2ccc3ccsc3c2)C[C@H]2CN(CCc3c([nH]c4ccccc34)[C@@](C(=O)OC)(c3cc4c(cc3OC)N(C)[C@H]3[C@@](O)(C(=O)OC)[C@H](OC(C)=O)[C@]5(CC)C=CCN6CC[C@]43[C@@H]65)C2)C1 [Compound 162], the IC50 (L1210; Table 6) was 3.1 nM and the IC50 (HCT116; Table 6) was 2.9 nM.

Compound CCC1(NC(=O)c2ccc3sccc3c2)CC2CN(CCc3c([nH]c4ccccc34)C(C(=O)OC)(c3cc4c(cc3OC)N(C)C3C(O)(C(=O)OC)C(OC(C)=O)C5(CC)C=CCN6CCC43C65)C2)C1 (centres unmarked) [Compound 163] has an IC50 (L1210; Table 6) of 4.2 nM and an IC50 (HCT116; Table 6) of 4.9 nM.

Compound CC[C@]1(NC(=O)c2csc3ccccc23)C[C@H]2CN(CCc3c([nH]c4ccccc34)[C@@](C(=O)OC)(c3cc4c(cc3OC)N(C)[C@H]3[C@@](O)(C(=O)OC)[C@H](OC(C)=O)[C@]5(CC)C=CCN6CC[C@]43[C@@H]65)C2)C1 [Compound 164] has an IC50 (L1210; Table 6) of 5.2 nM and an IC50 (HCT116; Table 6) of 5.7 nM.

For CC[C@]1(NC(=O)c2cc3ccccc3s2)C[C@H]2CN(CCc3c([nH]c4ccccc34)[C@@](C(=O)OC)(c3cc4c(cc3OC)N(C)[C@H]3[C@@](O)(C(=O)OC)[C@H](OC(C)=O)[C@]5(CC)C=CCN6CC[C@]43[C@@H]65)C2)C1 [Compound 165], the IC50 (L1210; Table 6) was 3.1 nM and the IC50 (HCT116; Table 6) was 1.9 nM.

CCC1(NC(=O)c2ccc3c(c2)ncn3C)CC2CN(CCc3c([nH]c4ccccc34)C(C(=O)OC)(c3cc4c(cc3OC)N(C)C3C(O)(C(=O)OC)C(OC(C)=O)C5(CC)C=CCN6CCC43C65)C2)C1 (centres unmarked) [Compound 166] was tested, and the IC50 (L1210; Table 6) was 0.7 nM and the IC50 (HCT116; Table 6) was 0.6 nM.

Work on CC[C@]1(NC(=O)c2ccc3ncoc3c2)C[C@H]2CN(CCc3c([nH]c4ccccc34)[C@@](C(=O)OC)(c3cc4c(cc3OC)N(C)[C@H]3[C@@](O)(C(=O)OC)[C@H](OC(C)=O)[C@]5(CC)C=CCN6CC[C@]43[C@@H]65)C2)C1 [Compound 167] yielded an IC50 (L1210; Table 6) of 0.6 nM and an IC50 (HCT116; Table 6) of 0.6 nM.

Compound CCC1(NC(=O)c2ccc3ocnc3c2)CC2CN(CCc3c([nH]c4ccccc34)C(C(=O)OC)(c3cc4c(cc3OC)N(C)C3C(O)(C(=O)OC)C(OC(C)=O)C5(CC)C=CCN6CCC43C65)C2)C1 (centres unmarked) [Compound 168] has an IC50 (L1210; Table 6) of 5.4 nM and an IC50 (HCT116; Table 6) of 5.1 nM.

CC[C@]1(NC(=O)c2nc3ccccc3o2)C[C@H]2CN(CCc3c([nH]c4ccccc34)[C@@](C(=O)OC)(c3cc4c(cc3OC)N(C)[C@H]3[C@@](O)(C(=O)OC)[C@H](OC(C)=O)[C@]5(CC)C=CCN6CC[C@]43[C@@H]65)C2)C1 [Compound 169] showed an IC50 (L1210; Table 6) of 60 nM and an IC50 (HCT116; Table 6) of 60 nM.
